The target in data set [1] is T1, ATP-sensitive inward rectifier potassium channel 1 (Homo sapiens, UniProt P48048).
T1 sequence (P48048 whole entry): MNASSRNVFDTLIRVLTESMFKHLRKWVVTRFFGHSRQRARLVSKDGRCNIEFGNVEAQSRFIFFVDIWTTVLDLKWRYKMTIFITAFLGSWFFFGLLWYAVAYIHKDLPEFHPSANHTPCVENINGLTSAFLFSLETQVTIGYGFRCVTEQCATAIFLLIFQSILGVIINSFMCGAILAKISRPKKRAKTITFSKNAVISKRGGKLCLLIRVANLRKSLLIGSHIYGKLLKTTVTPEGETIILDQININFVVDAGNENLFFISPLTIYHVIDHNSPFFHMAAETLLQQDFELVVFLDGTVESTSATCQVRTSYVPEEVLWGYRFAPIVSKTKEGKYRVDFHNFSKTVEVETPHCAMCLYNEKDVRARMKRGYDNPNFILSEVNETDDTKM
The data set can be described thus: Inhibition of human ROMK1 expressed in HEK293 cells by Tl+ flux assay. In kind it is cell-based.

For data set [2], the target named is Voltage-gated inwardly rectifying potassium channel KCNH2 (Homo sapiens, UniProt Q12809). The data set is described as follows: Inhibition of human ERG.
Chain of Voltage-gated inwardly rectifying potassium channel KCNH2 (Q12809 whole entry): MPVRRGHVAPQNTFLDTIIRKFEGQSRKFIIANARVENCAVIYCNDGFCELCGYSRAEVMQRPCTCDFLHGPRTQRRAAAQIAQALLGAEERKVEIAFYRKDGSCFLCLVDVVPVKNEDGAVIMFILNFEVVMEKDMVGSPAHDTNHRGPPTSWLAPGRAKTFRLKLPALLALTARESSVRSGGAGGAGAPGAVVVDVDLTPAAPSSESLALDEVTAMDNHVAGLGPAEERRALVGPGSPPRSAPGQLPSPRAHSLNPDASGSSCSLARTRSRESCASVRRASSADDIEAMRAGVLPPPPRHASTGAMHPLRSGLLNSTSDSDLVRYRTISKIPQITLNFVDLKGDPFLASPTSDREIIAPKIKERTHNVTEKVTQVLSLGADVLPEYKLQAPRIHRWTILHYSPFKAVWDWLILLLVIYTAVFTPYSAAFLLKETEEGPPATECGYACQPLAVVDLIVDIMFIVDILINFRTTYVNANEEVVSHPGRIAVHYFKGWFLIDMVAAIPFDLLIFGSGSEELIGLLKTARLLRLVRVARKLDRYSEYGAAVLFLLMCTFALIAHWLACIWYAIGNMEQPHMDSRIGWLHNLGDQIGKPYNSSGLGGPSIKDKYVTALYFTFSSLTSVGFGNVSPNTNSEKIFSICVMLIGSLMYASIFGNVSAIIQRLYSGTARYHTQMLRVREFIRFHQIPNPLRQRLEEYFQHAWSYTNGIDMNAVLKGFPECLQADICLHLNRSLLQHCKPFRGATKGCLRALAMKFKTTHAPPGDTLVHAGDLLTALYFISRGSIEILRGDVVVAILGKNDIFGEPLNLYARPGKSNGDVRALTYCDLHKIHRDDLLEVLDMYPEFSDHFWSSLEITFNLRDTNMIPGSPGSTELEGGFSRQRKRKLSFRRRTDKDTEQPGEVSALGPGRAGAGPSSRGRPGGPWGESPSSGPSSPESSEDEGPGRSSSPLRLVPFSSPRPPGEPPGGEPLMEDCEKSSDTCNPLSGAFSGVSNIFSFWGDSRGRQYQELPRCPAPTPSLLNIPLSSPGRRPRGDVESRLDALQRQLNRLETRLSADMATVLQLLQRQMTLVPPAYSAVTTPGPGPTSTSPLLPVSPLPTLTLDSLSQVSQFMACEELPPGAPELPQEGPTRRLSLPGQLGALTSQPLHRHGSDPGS
For data set [3], the target named is T2, ATP-sensitive inward rectifier potassium channel 1 (Rattus norvegicus, UniProt P35560).
T2 sequence (P35560 whole entry): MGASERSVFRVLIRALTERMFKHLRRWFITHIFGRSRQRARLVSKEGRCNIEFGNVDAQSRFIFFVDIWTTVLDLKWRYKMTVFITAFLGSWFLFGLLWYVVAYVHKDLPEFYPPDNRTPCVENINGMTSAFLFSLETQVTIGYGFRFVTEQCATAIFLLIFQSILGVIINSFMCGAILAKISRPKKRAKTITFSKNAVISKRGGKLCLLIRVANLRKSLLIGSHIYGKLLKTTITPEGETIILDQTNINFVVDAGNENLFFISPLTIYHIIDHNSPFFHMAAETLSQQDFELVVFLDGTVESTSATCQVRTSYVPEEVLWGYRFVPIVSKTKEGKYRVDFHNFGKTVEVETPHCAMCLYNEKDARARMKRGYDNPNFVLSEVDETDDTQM
The data set is described as follows: Inhibition of rat ROMK1 expressed in HEK293 cells by Tl+ flux assay. In kind it is cell-based.

Data set [4] has as its target T1, ATP-sensitive inward rectifier potassium channel 1. The data set is described as follows: Inhibition of human ROMK1 expressed in CHO cells by Tl+ flux assay. In kind it is cell-based.
Data set [5] can be described thus: Stability in rat liver microsomes assessed as parent compound remaining level. It is filed as ADME, Microsome.
Data set [6] deals with Sodium-dependent noradrenaline transporter (Homo sapiens) (UniProt P23975). The data set is described as follows: Inhibition of norepinephrine transporter (unknown origin) at 10 uM by radioligand displacement assay relative to control.
Chain of Sodium-dependent noradrenaline transporter (Homo sapiens) (P23975 whole entry): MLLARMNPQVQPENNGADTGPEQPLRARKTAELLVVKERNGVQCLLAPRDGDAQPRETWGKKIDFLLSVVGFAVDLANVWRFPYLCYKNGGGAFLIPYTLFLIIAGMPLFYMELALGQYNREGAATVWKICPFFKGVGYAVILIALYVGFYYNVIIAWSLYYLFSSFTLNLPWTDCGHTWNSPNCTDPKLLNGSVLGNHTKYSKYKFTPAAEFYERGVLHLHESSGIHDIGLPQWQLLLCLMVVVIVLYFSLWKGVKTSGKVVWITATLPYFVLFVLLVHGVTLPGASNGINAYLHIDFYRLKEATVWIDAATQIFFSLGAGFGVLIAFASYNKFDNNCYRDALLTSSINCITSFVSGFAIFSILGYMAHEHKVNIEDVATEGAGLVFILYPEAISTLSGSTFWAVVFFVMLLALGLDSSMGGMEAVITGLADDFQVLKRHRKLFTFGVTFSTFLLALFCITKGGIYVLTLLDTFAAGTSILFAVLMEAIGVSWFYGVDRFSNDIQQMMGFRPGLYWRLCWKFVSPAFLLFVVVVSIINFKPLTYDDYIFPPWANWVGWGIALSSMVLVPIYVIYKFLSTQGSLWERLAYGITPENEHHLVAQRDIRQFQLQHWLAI
Data set [7] in a line: Inhibition of GABA receptor (unknown origin) by radioligand displacement assay. More on the design: species or system Homo sapiens. On the technique in general: Displacement assays read how much labelled ligand stays bound in the presence of the test substance.
Data set [8] addresses Sodium-dependent dopamine transporter (Homo sapiens) (UniProt Q01959). The data set is described as follows: Inhibition of dopamine transporter (unknown origin) at 10 uM by radioligand displacement assay relative to control.
The test system of data set [9] is HEK293. The data set can be described thus: Inhibition of hamster SUR1/mouse Kir6.2 expressed in HEK293 cells at 10 uM by patch clamp electrophysiology assay relative to control. In kind it is cell-based.
The test system of data set [10] is HEK293. The data set can be described thus: Inhibition of hamster SUR1/mouse Kir6.2 expressed in HEK293 cells at 50 uM by patch clamp electrophysiology assay relative to control. In kind it is cell-based. (The patch-clamp technique gives a direct electrical read-out from membranes.)
In data set [11] the target is T3, D(4) dopamine receptor (Homo sapiens) (UniProt P21917).
T3 sequence (whole entry): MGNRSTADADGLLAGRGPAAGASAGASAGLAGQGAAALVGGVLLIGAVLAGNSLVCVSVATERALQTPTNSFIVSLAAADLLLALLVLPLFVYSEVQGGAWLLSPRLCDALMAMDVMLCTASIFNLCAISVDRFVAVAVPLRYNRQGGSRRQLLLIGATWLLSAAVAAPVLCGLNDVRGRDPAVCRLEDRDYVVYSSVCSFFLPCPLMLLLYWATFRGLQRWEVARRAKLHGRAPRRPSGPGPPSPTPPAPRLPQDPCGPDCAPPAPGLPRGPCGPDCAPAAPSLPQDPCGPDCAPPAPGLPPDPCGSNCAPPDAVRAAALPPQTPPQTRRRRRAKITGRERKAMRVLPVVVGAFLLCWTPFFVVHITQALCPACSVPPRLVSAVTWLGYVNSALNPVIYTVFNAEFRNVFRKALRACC
The data set is described as follows: Inhibition of DRD4 (unknown origin) at 10 uM by radioligand displacement assay relative to control.

Data set [12] is described as follows: Protein binding in human plasma. In kind it is ADME, cell-free. Conditions: read-out: PPB (converted).
Data set [13] is described as follows: Stability in human liver microsomes assessed as parent compound remaining level. In kind it is ADME, Microsome. For orientation: Liver microsomes are a subcellular fraction often used to study metabolism.
A short description of data set [14]: Protein binding in rat plasma. The following applies: read-out: PPB (converted). It is filed as ADME, cell-free.
Another data set is filed under the species Homo sapiens. The data set can be described thus: Inhibition of GABA receptor (unknown origin) at 10 uM by radioligand displacement assay relative to control.
The target in data set [15] is T4, Inward rectifier potassium channel 13 (Homo sapiens) (UniProt O60928).
T4 sequence (whole entry): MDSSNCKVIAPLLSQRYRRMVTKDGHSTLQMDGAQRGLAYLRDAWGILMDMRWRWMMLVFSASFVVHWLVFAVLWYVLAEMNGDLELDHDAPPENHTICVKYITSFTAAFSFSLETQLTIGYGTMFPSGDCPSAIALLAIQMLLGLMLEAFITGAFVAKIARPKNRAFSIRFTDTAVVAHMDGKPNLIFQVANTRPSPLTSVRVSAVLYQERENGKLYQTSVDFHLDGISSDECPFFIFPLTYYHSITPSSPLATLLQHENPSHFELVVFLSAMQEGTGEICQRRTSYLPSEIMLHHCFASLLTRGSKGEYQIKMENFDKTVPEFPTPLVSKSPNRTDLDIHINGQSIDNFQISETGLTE
The data set can be described thus: Inhibition human Kir7.1 expressed in HEK293 cells at 10 uM by whole cell patch clamp assay relative to control. It is filed as cell-based.

Chain of Sodium-dependent dopamine transporter (Homo sapiens) (Q01959 whole entry): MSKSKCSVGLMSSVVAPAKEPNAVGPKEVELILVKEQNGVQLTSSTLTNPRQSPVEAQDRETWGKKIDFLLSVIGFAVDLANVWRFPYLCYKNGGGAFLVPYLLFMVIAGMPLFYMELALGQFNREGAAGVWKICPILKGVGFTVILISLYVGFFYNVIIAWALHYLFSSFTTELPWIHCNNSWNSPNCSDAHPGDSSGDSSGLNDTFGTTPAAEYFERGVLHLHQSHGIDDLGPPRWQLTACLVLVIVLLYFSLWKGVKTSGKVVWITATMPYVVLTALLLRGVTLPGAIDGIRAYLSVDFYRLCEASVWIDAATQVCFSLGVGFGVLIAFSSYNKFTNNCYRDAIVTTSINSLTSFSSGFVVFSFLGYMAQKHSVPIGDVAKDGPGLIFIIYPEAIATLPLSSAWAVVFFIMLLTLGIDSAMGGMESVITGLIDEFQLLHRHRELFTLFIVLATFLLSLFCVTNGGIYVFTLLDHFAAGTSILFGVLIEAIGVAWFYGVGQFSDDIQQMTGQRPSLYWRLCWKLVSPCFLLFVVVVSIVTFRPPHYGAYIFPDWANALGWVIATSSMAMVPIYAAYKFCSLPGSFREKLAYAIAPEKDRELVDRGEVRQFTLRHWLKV

For orientation: IC50 means the midpoint of a concentration-inhibition curve. Read a high IC50 as weaker potency in that assay. For the compound `O=C1OCCc2cc([C@@H]3CN4CCN(C(=O)Cc5ccc(-n6cnnn6)cc5)C[C@H]4CO3)ccc21`, the half-maximal inhibitory concentration (IC50) is 57 nM in [1] and 75900 nM in [2].
Turning to `O=[N+]([O-])c1ccc2[nH]c(CCCc3nc4cc([N+](=O)[O-])ccc4[nH]3)nc2c1`, it took 8000 nM to reach half-maximal inhibition in data set [3] (IC50).
`Cc1c([C@@H]2CN(Cc3ccc(-n4cc(C#N)cn4)cn3)CCN2)ccc2c1COC2=O` yielded a half-inhibitory concentration (IC50) in data set [4] of 8.8 nM.
For `CC1=C(N2CCC3(CCN(C[C@@H](O)c4ccc5c(c4Cl)Cn4nnnc4-5)CC3)C2=O)COC1=O`, in [3], the 50% inhibitory concentration (IC50) was 9 nM.
The inhibition is the share of the control response that was lost under treatment. Consider `O=[N+]([O-])c1ccc2nc(COCc3nc4ccc([N+](=O)[O-])cc4[nH]3)[nH]c2c1`, for which the Stability in [5] is given as 60%; in [13], 80%. The inhibition was more than 50% in data set [6]; more than 50% in data set [8]; 17% in the data set with HEK293 [9]; 28% in the data set with HEK293 [10]; more than 50% in data set [11]; more than 50% in the data set filed under Homo sapiens. Besides, the IC50 is 6200 nM in [7] and 240 nM in [3]. For the same compound, the fraction unbound in data set [12] is 0.0086; in data set [14], 0.0161.
On to `CC1=C(N2CCC3(CCN(C[C@H](O)c4ccc5c(c4)Cn4nnnc4-5)C[C@H]3F)C2=O)COC1=O` (stereo not given in full), for which, in data set [3], the half-inhibitory concentration (IC50) worked out at 43 nM.
As to `O=C1OCc2cc(C3CN4CCN(C(=O)Cc5ccc(-n6cnnn6)cc5)CC4CO3)ccc21` (stereo not given), the results for the IC50 in data set [1] and in [2] were 65 to 105 nM and 21100 to 59400 nM, respectively.
`CCOc1cc(-n2cc(CNC[C@H](O)c3ccc4c(c3C)COC4=O)cn2)ccc1C#N` had an IC50 in data set [4] of 6.2 nM.
Consider `Cc1cc(-c2ncc(CNC[C@H](O)c3ccc4c(c3C)COC4=O)s2)ccc1C#N`, for which, in [4], the IC50 stood at 6.6 nM.
With `CC1=C(N2CCC3(CCN(CCc4ccc5c(c4)Cn4nnnc4-5)CC3)C2=O)COC1=O`, in data set [3], the IC50 came out at 6 nM.
With `Cc1c(C#N)cccc1[C@@H]1CN2CCN(C(=O)Cc3ccc(-n4cnnn4)cc3)C[C@H]2CO1`, the IC50 in [1] worked out at 60 nM; in data set [2], 14800 nM.
For the compound `CC1=C(N2CCC3(CCN(CC(CO)c4ccc5c(ccc6nnnn65)c4)CC3)C2=O)COC1=O` (stereo not given), in [3], the IC50 was determined as 18 nM.
In turn, `O=[N+]([O-])c1ccc(CN2CCOCCOCCN(Cc3ccc([N+](=O)[O-])cc3)CCOCC2)cc1` displayed an inhibition in [15] of 69%. For the same compound, the half-maximal inhibitory concentration (IC50) in data set [3] was found to be 294 nM.
With `Cc1c(C(O)CN2CCc3nc(-n4ncc5c(C#N)cccc54)ncc3C2)ccc2c1COC2=O` (stereo not given), in data set [4], the IC50 was found to be 38 nM.
Take `C[C@H]1CC2(CCN(C[C@@H](O)c3ccc4c(ccc5nnnn54)c3)CC2)C(=O)N1C1=CC(=O)OC1`: in data set [3], it took 10 nM to reach half-maximal inhibition (IC50).

The values are drawn from ChEMBL document CHEMBL4321786, “Discovery of Small Molecule Renal Outer Medullary Potassium (ROMK) Channel Inhibitors: A Brief History of Medicinal Chemistry Approaches To Develop Novel Diuretic Therapeutics” (J Med Chem, 2019).
